The text below walks through data of patent publication US11596632B2, “JAK1 pathway inhibitors for the treatment of gastrointestinal disease” (Incyte Corporation, priority 2018, dated 2023).

Bounds are passed on as bounds.

One assay concerns the target JAK2 (a.a. 828-1132) (Homo sapiens (Human), UniProt O60674). Kind of assay: In vitro JAK kinase assay (HTRF), JAK2 relative to JAK1. The conditions noted are these: IC50 ratio, 1 mM ATP. It counts as biochemical. The procedure:
(§1) The catalytic activity of JAK1, JAK2 or JAK3 was assayed by measuring the phosphorylation of a biotinylated peptide. The phosphorylated peptide was detected by homogenous time resolved fluorescence (HTRF). […] Reactions are carried out at room temperature for 1 hour and then stopped with 20 μL 45 mM EDTA, 300 nM SA-APC, 6 nM Eu-Py20 in assay buffer (Perkin Elmer, Boston, Mass.). Binding to the Europium labeled antibody takes place for 40 minutes and HTRF signal was measured on a Fusion plate reader (Perkin Elmer, Boston, Mass.).

Assay [1] has as its target human JAK1 (a.a. 837-1142) (Homo sapiens (Human), UniProt P23458). Kind of assay: In vitro JAK kinase assay (HTRF), JAK1. The class given is biochemical. The conditions noted are these: 1 mM ATP. The procedure:
as §1

Assay [2] deals with oxazolone-induced colitis in BALB/c mice. The conditions noted are these: published results (Beattie et al); cited from earlier work.

JAK2 (a.a. 828-1132), sequence (O60674 828-1132): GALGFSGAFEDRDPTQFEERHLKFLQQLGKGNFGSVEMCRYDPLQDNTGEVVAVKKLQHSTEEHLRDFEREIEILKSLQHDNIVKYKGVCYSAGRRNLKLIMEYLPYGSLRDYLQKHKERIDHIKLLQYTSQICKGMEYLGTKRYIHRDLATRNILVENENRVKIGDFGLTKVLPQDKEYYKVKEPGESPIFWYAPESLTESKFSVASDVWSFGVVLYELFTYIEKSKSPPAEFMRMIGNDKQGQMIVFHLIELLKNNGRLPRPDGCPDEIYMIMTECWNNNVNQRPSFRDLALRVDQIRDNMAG
human JAK1 (a.a. 837-1142), sequence (P23458 837-1142): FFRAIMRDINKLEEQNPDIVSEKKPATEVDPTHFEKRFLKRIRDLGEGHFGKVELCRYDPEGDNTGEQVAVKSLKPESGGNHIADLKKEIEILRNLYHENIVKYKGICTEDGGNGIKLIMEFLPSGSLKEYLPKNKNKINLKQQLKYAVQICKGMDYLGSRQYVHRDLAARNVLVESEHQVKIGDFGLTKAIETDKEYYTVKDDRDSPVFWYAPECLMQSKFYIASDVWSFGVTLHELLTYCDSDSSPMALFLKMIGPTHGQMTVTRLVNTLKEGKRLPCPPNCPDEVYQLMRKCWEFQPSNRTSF

As to `N#CCC(C1CCN(c2cccc(Cl)n2)C1)n1cc(-c2ncnc3[nH]ccc23)cn1` (single isomer, unassigned) [Compound 6, 3-[1-(6-chloropyridin-2-yl)pyrrolidin-3-yl]-3-[4-(7H-pyrrolo[2,3-d]pyrimidin-4-yl)-1H-pyrazol-1-yl]propanenitrile], at JAK2 (a.a. 828-1132), the JAK2/JAK1 is reported as more than 10. This compound showed an IC50 in assay [1] of less than 10 nM.
For `N#CCC1(n2cc(-c3ncnc4[nH]ccc34)cn2)CN(C2CCN(C(=O)Nc3ccc(F)cc3C(F)(F)F)CC2)C1` [Compound 2, 4-{3-(Cyanomethyl)-3-[4-(7H-pyrrolo[2,3-d]pyrimidin-4-yl)-1H-pyrazol-1-yl]azetidin-1-yl}-N-[4-fluoro-2-(trifluoromethyl)phenyl]piperidine-1-carboxamide], in that order: more than 10 and less than 10 nM.
Consider `N#CCC1(n2cc(-c3ncnc4[nH]ccc34)cn2)CN(C2CCN(C(=O)c3ccnc(C(F)(F)F)n3)CC2)C1` [Compound 3, [3-[4-(7H-pyrrolo[2,3-d]pyrimidin-4-yl)-1H-pyrazol-1-yl]-1-(1-{[2-(trifluoromethyl)pyrimidin-4-yl]carbonyl}piperidin-4-yl)azetidin-3-yl]acetonitrile], for which, at JAK2 (a.a. 828-1132), the JAK2/JAK1 was more than 10. Moreover, the IC50 in assay [1] was less than 10 nM.
In the same order, the values of `C[C@@H](O)c1nc2cnc3ccsc3c2n1[C@H]1CC[C@H](CC#N)OC1` [Compound 5, ((2R,5S)-5-{2-[(1R)-1-hydroxyethyl]-1H-imidazo[4,5-d]thieno[3,2-b]pyridin-1-yl}tetrahydro-2H-pyran-2-yl)acetonitrile] are more than 10 and less than 100 nM.
For `N#CCC(C1CCN(c2nc3cccnc3o2)C1)n1cc(-c2ncnc3[nH]ccc23)cn1` (stereo not drawn) [Compound 7, 3-(1-[1,3]oxazolo[5,4-b]pyridin-2-ylpyrrolidin-3-yl)-3-[4-(7H-pyrrolo[2,3-d]pyrimidin-4-yl)-1H-pyrazol-1-yl]propanenitrile], the JAK2/JAK1 on JAK2 (a.a. 828-1132) is given as more than 10. In assay [1], this compound came in with a half-maximal inhibitory concentration (IC50) of less than 10 nM.
Take `N#CCC(CN1CCN(C(=O)c2ccc(C#N)cc2F)CC1)n1ccc(-c2ncnc3[nH]ccc23)c1` (stereo not drawn) [Compound 9, 4-[(4-{3-cyano-2-[3-(7H-pyrrolo[2,3-d]pyrimidin-4-yl)-1H-pyrrol-1-yl]propyl}piperazin-1-yl)carbonyl]-3-fluorobenzonitrile]: at JAK2 (a.a. 828-1132), the JAK2/JAK1 was more than 10. In assay [1], the IC50 was less than 10 nM.
For `N#CC[C@]1(n2cc(-c3ncnc4[nH]ccc34)cn2)C[C@H](N2CCN(C(=O)c3ccnc(C(F)(F)F)n3)CC2)C1` [Compound 10, [trans-1-[4-(7H-pyrrolo[2,3-d]pyrimidin-4-yl)-1H-pyrazol-1-yl]-3-(4-{[2-(trifluoromethyl)pyrimidin-4-yl]carbonyl}piperazin-1-yl)cyclobutyl]acetonitrile], in that order: more than 10 and less than 10 nM.
Turning to `N#CC[C@]1(n2cc(-c3ncnc4[nH]ccc34)cn2)C[C@H](N2CCC(Oc3cc(CN4CC(O)C4)cc(C(F)(F)F)n3)CC2)C1` [Compound 11, {trans-3-(4-{[4-[(3-hydroxyazetidin-1-yl)methyl]-6-(trifluoromethyl)pyridin-2-yl]oxy}piperidin-1-yl)-1-[4-(7H-pyrrolo[2,3-d]pyrimidin-4-yl)-1H-pyrazol-1-yl]cyclobutyl}acetonitrile], the JAK2/JAK1 on JAK2 (a.a. 828-1132) is recorded as more than 10. Moreover, the IC50 in assay [1] is less than 10 nM.
For `N#CC[C@]1(n2cc(-c3ncnc4[nH]ccc34)cn2)C[C@H](N2CCC(Oc3cc(CN4CCC[C@H]4CO)cc(C(F)(F)F)n3)CC2)C1` [Compound 12, {trans-3-(4-{[4-{[(2S)-2-(hydroxymethyl)pyrrolidin-1-yl]methyl}-6-(trifluoromethyl)pyridin-2-yl]oxy}piperidin-1-yl)-1-[4-(7H-pyrrolo[2,3-d]pyrimidin-4-l)-1H-pyrazol-1-yl]cyclobutyl}acetonitrile], in that order: more than 10 and less than 10 nM.
In the same order, the values of `N#CC[C@]1(n2cc(-c3ncnc4[nH]ccc34)cn2)C[C@H](N2CCC(Oc3cc(CN4CCC[C@@H]4CO)cc(C(F)(F)F)n3)CC2)C1` [Compound 13, {trans-3-(4-{[4-{[(2R)-2-(hydroxymethyl)pyrrolidin-1-yl]methyl}-6-(trifluoromethyl)pyridin-2-yl]oxy}piperidin-1-yl)-1-[4-(7H-pyrrolo[2,3-d]pyrimidin-4-yl)-1H-pyrazol-1-yl]cyclobutyl}acetonitrile] are more than 10 and less than 10 nM.
In the case of `N#CCC1(n2cc(-c3ncnc4[nH]ccc34)cn2)CN([C@H]2CC[C@@H](Oc3cc(CCO)nc(C(F)(F)F)n3)CC2)C1` [Compound 18, {1-(cis-4-{[6-(2-hydroxyethyl)-2-(trifluoromethyl)pyrimidin-4-yl]oxy}cyclohexyl)-3-[4-(7H-pyrrolo[2,3-d]pyrimidin-4-yl)-1H-pyrazol-1-yl]azetidin-3-yl}acetonitrile], on JAK2 (a.a. 828-1132), the JAK2/JAK1 is more than 10. Also, in assay [1], the IC50 was less than 10 nM.
For `CCNCc1cc(O[C@H]2CC[C@@H](N3CC(CC#N)(n4cc(-c5ncnc6[nH]ccc56)cn4)C3)CC2)nc(C(F)(F)F)c1` [Compound 19, {1-(cis-4-{[4-[(ethylamino)methyl]-6-(trifluoromethyl)pyridin-2-yl]oxy}cyclohexyl)-3-[4-(7H-pyrrolo[2,3-d]pyrimidin-4-yl)-1H-pyrazol-1-yl]azetidin-3-yl}acetonitrile], in that order: more than 10 and less than 10 nM.
Turning to `CC(C)(O)c1cc(O[C@H]2CC[C@@H](N3CC(CC#N)(n4cc(-c5ncnc6[nH]ccc56)cn4)C3)CC2)nc(C(F)(F)F)c1` [Compound 20, {1-(cis-4-{[4-(1-hydroxy-1-methylethyl)-6-(trifluoromethyl)pyridin-2-yl]oxy}cyclohexyl)-3-[4-(7H-pyrrolo[2,3-d]pyrimidin-4-yl)-1H-pyrazol-1-yl]azetidin-3-yl}acetonitrile], on JAK2 (a.a. 828-1132), the JAK2/JAK1 is listed as more than 10. In assay [1], the 50% inhibitory concentration (IC50) was less than 10 nM.
For `N#CCC1(n2cc(-c3ncnc4[nH]ccc34)cn2)CN([C@H]2CC[C@@H](Oc3cc(CN4CC[C@@H](O)C4)cc(C(F)(F)F)n3)CC2)C1` [Compound 21, {1-(cis-4-{[4-{[(3R)-3-hydroxypyrrolidin-1-yl]methyl}-6-(trifluoromethyl)pyridin-2-yl]oxy}cyclohexyl)-3-[4-(7H-pyrrolo[2,3-d]pyrimidin-4-yl)-1H-pyrazol-1-yl]azetidin-3-yl}acetonitrile], in that order: more than 10 and less than 10 nM.
For `N#CCC1(n2cc(-c3ncnc4[nH]ccc34)cn2)CN([C@H]2CC[C@@H](Oc3cc(CN4CC[C@H](O)C4)cc(C(F)(F)F)n3)CC2)C1` [Compound 22, {1-(cis-4-{[4-{[(3S)-3-hydroxypyrrolidin-1-yl]methyl}-6-(trifluoromethyl)pyridin-2-yl]oxy}cyclohexyl)-3-[4-(7H-pyrrolo[2,3-d]pyrimidin-4-yl)-1H-pyrazol-1-yl]azetidin-3-yl}acetonitrile], the JAK2/JAK1 on JAK2 (a.a. 828-1132) is on record as more than 10. The half-inhibitory concentration (IC50) in assay [1] was less than 10 nM.
For `C[C@@H](CO)NCc1cc(OC2CCN([C@H]3C[C@](CC#N)(n4cc(-c5ncnc6[nH]ccc56)cn4)C3)CC2)nc(C(F)(F)F)c1` [Compound 23], in that order: more than 10 and less than 10 nM.
For `C[C@@H](O)CNCc1cc(OC2CCN([C@H]3C[C@](CC#N)(n4cc(-c5ncnc6[nH]ccc56)cn4)C3)CC2)nc(C(F)(F)F)c1` [Compound 24, {trans-3-(4-{[4-({[(2R)-2-hydroxypropyl]amino}methyl)-6-(trifluoromethyl)pyridin-2-yl]oxy}piperidin-1-yl)-1-[4-(7H-pyrrolo[2,3-d]pyrimidin-4-yl)-1H-pyrazol-1-yl]cyclobutyl}acetonitrile], on JAK2 (a.a. 828-1132), the JAK2/JAK1 was more than 10. The compound further came in with a half-inhibitory concentration (IC50) in assay [1] of less than 10 nM.
For the compound `C[C@H](O)CNCc1cc(OC2CCN([C@H]3C[C@](CC#N)(n4cc(-c5ncnc6[nH]ccc56)cn4)C3)CC2)nc(C(F)(F)F)c1` [Compound 25, {trans-3-(4-{[4-({[(2S)-2-hydroxypropyl]amino}methyl)-6-(trifluoromethyl)pyridin-2-yl]oxy}piperidin-1-yl)-1-[4-(7H-pyrrolo[2,3-d]pyrimidin-4-yl)-1H-pyrazol-1-yl]cyclobutyl}acetonitrile], the JAK2/JAK1 on JAK2 (a.a. 828-1132) is more than 10. This compound registered a concentration for half-maximal inhibition (IC50) in assay [1] of less than 10 nM.
In the same order, the values of `N#CC[C@]1(n2cc(-c3ncnc4[nH]ccc34)cn2)C[C@H](N2CCC(Oc3cc(CCO)cc(C(F)(F)F)n3)CC2)C1` [Compound 26, {trans-3-(4-{[4-(2-hydroxyethyl)-6-(trifluoromethyl)pyridin-2-yl]oxy}piperidin-1-yl)-1-[4-(7H-pyrrolo[2,3-d]pyrimidin-4-yl)-1H-pyrazol-1-yl]cyclobutyl}acetonitrile] are more than 10 and less than 10 nM.
With `C[C@@H]1CCN(C(=O)CC#N)C[C@@H]1N(C)c1ncnc2[nH]ccc12` [tofacitinib], the “effect on oxazolone-induced colitis” value in assay [2] is “inhibits oxazolone-induced colitis”.

As a reminder, the IC50 is the concentration that gives 50% inhibition.
